A word on the IC50: it is the concentration that gives 50% inhibition. As usually defined, the EC50 is the midpoint of the concentration-response curve.

One assay deals with MDA-MB231TXSA cells. Put plainly: Cell viability, crystal violet colorimetric assay. It is filed as cell-based. The settings on record: 72 hrs; for IC50: tested at 0.02-0.1 mM, read-out: IC50 values MB231-TXSA. The protocol: (§1) Immortalised osteolytic metastatic breast cancer cell lines, a) hormone-dependent MCF-7 and b) hormone refractory MDA-MB231, together with the daughter line MDA-MB231TXSA were incubated with 5 gradual concentrations of compounds of the invention as described below. Cell viability was assessed with the crystal violet colorimetric assay and IC50s were evaluated.
(§2) Medium was removed from cell cultures and cells were fixed with 4% v/v formaldehyde for 5 mins at room temperature. Formalin was then removed and CV added for 10 mins at room temperature followed by several washes with dsH2O. Samples were allowed to dry overnight. The following day, 10% acetic acid was added for 15 mins and optical density at 620 nm was measured. Optical densities versus compound concentrations were plotted in graphs and IC50s estimated by linear regression analysis using the WorkOut (VictorX4) software.
(§3) MCF-7, MDA-MB231 and MDA-MB231TXSA cells were seeded in 96-well-plates and allowed to attach overnight. The following day media were replaced with fresh media containing the following compounds: Both free tetraethyl methylbisphosphonate (bpp(OEt)) and bpp(OEt) in 1:1 combination with the free chromanol and the biphosphonate conjugates were tested at 5 gradual concentrations of: 0.02, 0.04, 0.06, 0.08 and 0.1 mM.
(§4) Cells were cultured in the presence of the compounds for 72 hrs and viability was assessed on day 3 by crystal violet assay. The cell lines were selected for their high bone metastatic potential. The fluorescently transfected line MB231TXSA, derived from line MB231 is also used in animal studies (WP7).

For a further assay, the system named is MDA-MB231 cells. Briefly: Cell viability, crystal violet colorimetric assay. The settings on record: 72 hrs; for IC50: tested at 0.02-0.1 mM. The class given is cell-based. On the procedure: as §1, §2, §3, §4
Another assay relates to mouse neonatal calvariae. Briefly: Calvarial organotypic bone growth assay (ex vivo). On the set-up: species or system mouse (Balb/c). The settings on record: ex vivo culture 10 days, FIG. 7; for bone formation in calvariae: above free BP or untreated. On the procedure: Anexvivo model of cultured mouse neonatal calvariae to assess bone anabolic activity of each compound was performed as previously described by Garrett, I et al., (Methods Mol Med, 2003. 80: p. 183-198).
Briefly fifteen newborn, 4 day old Balb/c pubs were used for these experiments. Calvarial bones were dissected under sterile conditions and placed on sterile grids in 12 well plates containing culture media. Calvarial bones were cultured for 10 days in the presence of free γToc, BP-γToc or free BP. Bone morphogenetic protein 2 (BMP-2) was used as a positive control, with known bone anabolic activity in this assay.
Treatments were carried out in quadruplicate as shown below. Calvarial bones were embedded in paraffin wax and sections were stained with haematoxylin and eosin stain (H&E) and analysed using the nanozoom image analysis software.
• Untreated • Bpp(OEt) (BP) (15 μM) • BP (20 μM) • γ-Tocotrienol (15 μM) • γ-Tocotrienol (20 μM) • γ-Tocotrienol (100 μM) • BP-γ-tocotrienol conjugate (15 μM) • BP-γTocotrienol conjugate (20 μM) • BP-γ-Tocotrienol conjugate (100 μM) • BMP-2 (50 ng/ml)
New bone formation in treated calvariae was assessed by histological assessment of stained sections.

Assay [1] is described as follows: Binding to pre-loaded bone slices / hydroxyapatite after washing. The settings on record: pre-loaded whale dentine or osteologic slides, unbound drug washed away. An excerpt: (§5) In a separate experiment, pre-loaded bone slices (whale dentine) or commercial forms of hydroxyapatite (osteologic slides) with either free γ-tocopherol (γToc) or γ-tocopherol-bpp(OEt) (BP-γToc) and then washed away unbound drug.

Assay [2] deals with osteoclasts from RAW264.7 and Human PBMC. Briefly: Resorption on pre-loaded whale dentine / osteologic slides (pit formation). It is filed as cell-based, murine. The settings on record: for effect on differentiation and activity of osteoclasts: summary statement.
From the text: Zoledronic acid was used as control.
Human peripheral blood mononuclear cells (PBMCs) and the RAW264.7 murine monocytic cell line were differentiated into osteoclast-like cells in the presence of RANKL plus M-CSF and have been used as model systems of osteoclastogenesis. Osteoclast-like cells, from Giant Cell Tumours (GCT) of bone specimens from three independent donors were used to investigate the effect of compounds of the invention on the bone resorbing activity of mature osteoclasts.
Human PBMCs were isolated from normal healthy donors isolated from the buffy coats acquired from the local Red Cross Blood Service. The cells were diluted in Hanks Balanced Salt Solution (HBSS) and separated by gradient centrifugation with Lymphoprep™. Isolated cells were resuspended in α MOD, 10% FCS, L-glutamine (2 mM), Hepes (20 mM), supplemented with M-CSF (25 ng/ml), 1α,25(OH)2 vitamin D3 (10 nM) and dexamethasone (10 nM) and plated into 96-well plates containing whale dentine slices, for the bone resorption assay or directly into wells for TRAP staining. The following day, media were removed and replaced with media as above, supplemented with RANKL (100 ng/ml) in the presence or absence of increasing concentrations of compounds of the invention. Medium and treatments were replaced every three days.
Cells were cultured in 96-well plates at a density of 1×10^4 cells/well in DMEM medium with 10% FCS, L-glutamine (2 mM) and Hepes (20 mM). Cells were allowed to attach for 4 hrs before treatment with RANKL (50 ng/ml) in the presence or absence of increasing concentrations of compounds of the invention as above. Medium and treatments were replaced on day three and TRAP activity determined on day 5. The overall number of viable cells were determined by crystal violet staining.
Whale dentine slices will be washed in extran, rinsed with distilled water, washed in 70% ethanol and dried overnight. The dentine slices mounted on stubs, carbon-coated and visualised on a Philips XL-20 scanning electron microscope, (SEM) as previously described. Images will be analysed using ImageQuant software and the area of resorption determined for each dentine slice (quadruplicate dentine slices for each treatment). Results are expected to be average resorption area +/− standard errors of the mean (SEM) and the significant differences between treatments will be determined using Students t-tests (2-tailed, unpaired).
as §5

SMILES strings stand for the structures. Entries after “also recorded” stand apart in the source; their conditions may differ. Read-outs that look alike come from different tables or passages of the source.

Consider `Cc1c(O)cc2c(c1C)O[C@](C)(CCC[C@H](C)CCC[C@H](C)CCCC(C)C)CC2` [γ-toc, γ-tocopherol, reference compound], for which the IC50 with MDA-MB231TXSA cells (Exp.1) turned out to be 97.4 µM; in the assay on MDA-MB231TXSA cells (Exp.2, unstarred values), 233 µM; with MDA-MB231 cells (Exp.2), 55.7 µM. In addition, the EC50 in the assay with MDA-MB231 cells (Exp.1, * denotes EC50 value, read-out: EC50 value (starred) MB231) turned out to be 312 µM. The “bone formation in calvariae” value in the assay with mouse neonatal calvariae is given as “significantly increased bone formation”. Further, the “binding to bone substrate / bone mineral” value in assay [1] is on record as “not”. The “effect on differentiation and activity of osteoclasts” value in assay [2] is “inhibitory effect on the differentiation and activity of osteoclasts”.

As to `CCOP(=O)(OCC)C(CCC(=O)Oc1cc2c(c(C)c1C)OC(C)(CCCC(C)CCCC(C)CCCC(C)C)CC2)P(=O)(OCC)OCC` (stereo not shown) [γ-toc-bpp(OEt), γ-tocopheryl bisphosphonic ester], the IC50 in the assay on MDA-MB231TXSA cells (Exp.1) was 79.3 µM; with MDA-MB231 cells (Exp.1, unstarred values) it was 124 µM; in the assay with MDA-MB231 cells (Exp.2) it was 49.7 µM. In the assay with MDA-MB231TXSA cells (Exp.2, * denotes EC50 value, read-out: EC50 value (starred) MB231-TXSA), the concentration for a half-maximal effect (EC50) was determined as 189 µM. Further, in the assay on mouse neonatal calvariae (listed as BP-γToc), the “bone formation compared with free γToc and BMP-2 positive control” value is listed as “far superior to the free γToc; also recorded: even greater than that seen with the BMP-2 positive control”. For the same compound, the “bone formation in calvariae” value in the assay with mouse neonatal calvariae is recorded as “significantly increased bone formation”. Moreover, in assay [1], the “binding to bone substrate / bone mineral” value is reported as “selectively bound the substrate”. Further, the “inhibition of resorption on pre-loaded substrate” value in assay [2] (pre-loaded, washed, zoledronic acid as control, FIG. 5) is given as “inhibited resorption to an extent comparable with that seen with zoledronic acid”. Further, the “effect on differentiation and activity of osteoclasts” value in assay [2] was “retains the inhibitory activity on osteoclast differentiation and bone resorption”.

The values above are taken from patent US11400160B2, “Multifunctional conjugates” (E.P.O.S IASIS Research and Development Limited, priority 2017, dated 2022).
